pIC50: −log10 of the molar value.

What all share (assay type): biochemical
In one assay the target is T1, Fyn (Homo sapiens, UniProt P06241).
T1 construct: Kinases are expressed as either kinase domains or full length constructs; made in house
Kind of assay: Kinase inhibition assay (33P transfer), Fyn. Particulars: read-out: Fyn-1. The method in brief: (§1)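 Radiometric format: recombinant tagged kinase (catalytic domain or whole protein, sometimes combined with regulatory polypeptides) phosphorylates immobilised poly(Glu,Tyr) 4:1 or poly(Arg,Ser) 3:1 using [33P]ATP. Wells are washed in 0.5% phosphoric acid, then counted. IC50 is taken where substrate labelling falls by half.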

The target of the next assay is T2, Hck-1 (Homo sapiens, UniProt P08631).
T2 construct: Kinases are expressed as either kinase domains or full length constructs; made in house
Kind of assay: Kinase inhibition assay (33P transfer), Hck. To be noted: Table 6, Hck-1 kinase inhibition class.

A further assay has as its target T3, Lck (Homo sapiens, UniProt P06239).
T3 construct: Kinases are expressed as either kinase domains or full length constructs; made in house
Kind of assay: Kinase inhibition assay (33P transfer), Lck. To be noted: read-out: Lck-1. The gist of the method:
(§2)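 Enzyme activity is taken as the amount of 33PO4 moved from ATP onto poly(Glu, Tyr) 4:1 or poly(Arg, Ser) 3:1 fixed to the plate surface. Unbound label is removed with 0.5% phosphoric acid before scintillation counting.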

The next assay deals with T4, Zap-70 (Homo sapiens, UniProt P43403).
T4 construct: Kinases are expressed as either kinase domains or full length constructs; made in house
T4 sequence (P43403 1-619): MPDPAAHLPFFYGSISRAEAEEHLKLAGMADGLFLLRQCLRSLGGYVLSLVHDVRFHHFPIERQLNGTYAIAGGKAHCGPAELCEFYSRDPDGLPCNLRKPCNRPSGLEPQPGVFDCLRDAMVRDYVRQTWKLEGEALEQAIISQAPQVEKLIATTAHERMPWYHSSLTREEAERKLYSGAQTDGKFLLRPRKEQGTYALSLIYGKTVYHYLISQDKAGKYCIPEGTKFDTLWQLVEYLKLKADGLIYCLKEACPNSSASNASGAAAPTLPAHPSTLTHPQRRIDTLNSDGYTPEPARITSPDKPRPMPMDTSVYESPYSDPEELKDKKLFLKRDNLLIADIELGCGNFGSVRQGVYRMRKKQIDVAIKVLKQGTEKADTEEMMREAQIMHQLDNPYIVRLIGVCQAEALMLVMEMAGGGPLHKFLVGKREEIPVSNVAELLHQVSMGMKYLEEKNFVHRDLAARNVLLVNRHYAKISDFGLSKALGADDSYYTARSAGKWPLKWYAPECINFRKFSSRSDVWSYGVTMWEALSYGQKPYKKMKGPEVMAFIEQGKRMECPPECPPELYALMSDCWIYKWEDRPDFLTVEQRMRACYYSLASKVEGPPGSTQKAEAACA
Kind of assay: Kinase inhibition assay (33P transfer), Zap-70. To be noted: read-out: Zap-1. The method in brief: as §2

The target in a further assay is T5, Kdr (Homo sapiens, UniProt P35968).
T5 construct: Kinases are expressed as either kinase domains or full length constructs; made in house
Kind of assay: Kinase inhibition assay (33P transfer), Kdr. To be noted: read-out: KDR-1. The gist of the method: as §2

The next assay concerns the target T6, Flt-1 (Homo sapiens, UniProt P17948).
T6 construct: Kinases are expressed as either kinase domains or full length constructs; made in house
Kind of assay: Kinase inhibition assay (33P transfer), Flt-1. The gist of the method:
as §1

The next assay deals with T7, Src (Homo sapiens, UniProt P12931).
T7 construct: Kinases are expressed as either kinase domains or full length constructs; made in house
Kind of assay: Kinase inhibition assay (33P transfer), Src. To be noted: Table 6, Src-1 kinase inhibition class. The gist of the method: as §1

The target in another assay is T8, PDGFRB (Homo sapiens, UniProt P09619).
T8 construct: Kinases are expressed as either kinase domains or full length constructs; made in house
Kind of assay: Kinase inhibition assay (33P transfer), PDGFRB. Particulars: read-out: PDGFRB-1.

A further assay deals with T9, EGFR (Homo sapiens, UniProt P00533).
T9 construct: Kinases are expressed as either kinase domains or full length constructs; made in house
Kind of assay: Kinase inhibition assay (33P transfer), EGFR. Particulars: Table 2, kinase inhibition class; read-out: EGFR-1. The gist of the method:
as §1

For another assay, the target named is T10, Tek (Homo sapiens, UniProt Q02763).
T10 construct: Kinases are expressed as either kinase domains or full length constructs; made in house
Kind of assay: Kinase inhibition assay (33P transfer), Tek. To be noted: read-out: Tek-1. The gist of the method:
as §1

The next assay concerns the target T11, ErbB2 (Homo sapiens, UniProt P04626).
T11 construct: Kinases are expressed as either kinase domains or full length constructs; made in house
Kind of assay: Kinase inhibition assay (33P transfer), ErbB2. To be noted: read-out: ErbB2-2. The method in brief:
as §1

A further assay addresses T12, AKT (Homo sapiens, UniProt Q9Y243).
T12 construct: Kinases are expressed as either kinase domains or full length constructs; made in house
Kind of assay: Kinase inhibition assay (33P transfer), AKT. To be noted: Table 2, kinase inhibition class; read-out: AKT3-1. The gist of the method:
as §2

In the next assay the target is T13, Lyn (Homo sapiens, UniProt P07948).
T13 construct: Kinases are expressed as either kinase domains or full length constructs; made in house
Kind of assay: Kinase inhibition assay (33P transfer), Lyn. Particulars: Table 6, Lyn-1 kinase inhibition class. The method in brief:
as §1

In another assay the target is T14, Itk (Homo sapiens, UniProt Q08881).
T14 construct: Kinases are expressed as either kinase domains or full length constructs; made in house
T14 sequence (Q08881 1-620): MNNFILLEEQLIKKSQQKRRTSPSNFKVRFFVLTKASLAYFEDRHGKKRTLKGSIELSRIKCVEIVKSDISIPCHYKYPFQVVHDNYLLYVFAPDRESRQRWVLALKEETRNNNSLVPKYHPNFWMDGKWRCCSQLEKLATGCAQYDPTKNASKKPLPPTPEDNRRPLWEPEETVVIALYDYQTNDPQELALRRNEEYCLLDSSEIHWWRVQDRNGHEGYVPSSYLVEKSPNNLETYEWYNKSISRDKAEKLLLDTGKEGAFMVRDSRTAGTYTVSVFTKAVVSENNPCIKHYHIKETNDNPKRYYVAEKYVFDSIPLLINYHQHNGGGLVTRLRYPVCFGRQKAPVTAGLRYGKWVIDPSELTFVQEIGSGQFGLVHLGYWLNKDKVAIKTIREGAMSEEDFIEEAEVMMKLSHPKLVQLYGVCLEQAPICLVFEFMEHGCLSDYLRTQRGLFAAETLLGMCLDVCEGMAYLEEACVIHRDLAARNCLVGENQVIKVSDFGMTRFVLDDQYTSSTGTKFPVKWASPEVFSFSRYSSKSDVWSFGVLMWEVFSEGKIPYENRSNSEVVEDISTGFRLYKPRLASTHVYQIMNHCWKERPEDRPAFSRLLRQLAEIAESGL
Kind of assay: Kinase inhibition assay (33P transfer), Itk. To be noted: read-out: Itk-1. The gist of the method:
as §1

The target of a further assay is T15, IGFR-1 (Homo sapiens, UniProt P08069).
T15 construct: Kinases are expressed as either kinase domains or full length constructs; made in house
Kind of assay: Kinase inhibition assay, IGFR-1 (Table 2). To be noted: Table 2, kinase inhibition class.

For another assay, the target named is T16, ErbB4 (Homo sapiens, UniProt Q15303).
T16 construct: Kinases are expressed as either kinase domains or full length constructs; made in house
Kind of assay: Kinase inhibition assay (33P transfer), ErbB4. Particulars: read-out: ErbB4-1.

The next assay concerns the target T17, FGFR1 (Homo sapiens, UniProt P11362).
T17 construct: Kinases are expressed as either kinase domains or full length constructs; made in house
Kind of assay: Kinase inhibition assay (33P transfer), FGFR1. To be noted: read-out: FGFR1-1.

For the next assay, the target named is T18, Ret-1 (Homo sapiens, UniProt P07949).
T18 construct: Kinases are expressed as either kinase domains or full length constructs; made in house
Kind of assay: Kinase inhibition assay (33P transfer), Ret. To be noted: Table 6, Ret-1 kinase inhibition class.

In a further assay the target is T19, c-Met (Homo sapiens, UniProt P08581).
T19 construct: Kinases are expressed as either kinase domains or full length constructs; made in house
Kind of assay: Kinase inhibition assay (33P transfer), c-Met. Particulars: Table 2, kinase inhibition class; read-out: Met-1. The method in brief:
as §1

T15 sequence (P08069 31-1367): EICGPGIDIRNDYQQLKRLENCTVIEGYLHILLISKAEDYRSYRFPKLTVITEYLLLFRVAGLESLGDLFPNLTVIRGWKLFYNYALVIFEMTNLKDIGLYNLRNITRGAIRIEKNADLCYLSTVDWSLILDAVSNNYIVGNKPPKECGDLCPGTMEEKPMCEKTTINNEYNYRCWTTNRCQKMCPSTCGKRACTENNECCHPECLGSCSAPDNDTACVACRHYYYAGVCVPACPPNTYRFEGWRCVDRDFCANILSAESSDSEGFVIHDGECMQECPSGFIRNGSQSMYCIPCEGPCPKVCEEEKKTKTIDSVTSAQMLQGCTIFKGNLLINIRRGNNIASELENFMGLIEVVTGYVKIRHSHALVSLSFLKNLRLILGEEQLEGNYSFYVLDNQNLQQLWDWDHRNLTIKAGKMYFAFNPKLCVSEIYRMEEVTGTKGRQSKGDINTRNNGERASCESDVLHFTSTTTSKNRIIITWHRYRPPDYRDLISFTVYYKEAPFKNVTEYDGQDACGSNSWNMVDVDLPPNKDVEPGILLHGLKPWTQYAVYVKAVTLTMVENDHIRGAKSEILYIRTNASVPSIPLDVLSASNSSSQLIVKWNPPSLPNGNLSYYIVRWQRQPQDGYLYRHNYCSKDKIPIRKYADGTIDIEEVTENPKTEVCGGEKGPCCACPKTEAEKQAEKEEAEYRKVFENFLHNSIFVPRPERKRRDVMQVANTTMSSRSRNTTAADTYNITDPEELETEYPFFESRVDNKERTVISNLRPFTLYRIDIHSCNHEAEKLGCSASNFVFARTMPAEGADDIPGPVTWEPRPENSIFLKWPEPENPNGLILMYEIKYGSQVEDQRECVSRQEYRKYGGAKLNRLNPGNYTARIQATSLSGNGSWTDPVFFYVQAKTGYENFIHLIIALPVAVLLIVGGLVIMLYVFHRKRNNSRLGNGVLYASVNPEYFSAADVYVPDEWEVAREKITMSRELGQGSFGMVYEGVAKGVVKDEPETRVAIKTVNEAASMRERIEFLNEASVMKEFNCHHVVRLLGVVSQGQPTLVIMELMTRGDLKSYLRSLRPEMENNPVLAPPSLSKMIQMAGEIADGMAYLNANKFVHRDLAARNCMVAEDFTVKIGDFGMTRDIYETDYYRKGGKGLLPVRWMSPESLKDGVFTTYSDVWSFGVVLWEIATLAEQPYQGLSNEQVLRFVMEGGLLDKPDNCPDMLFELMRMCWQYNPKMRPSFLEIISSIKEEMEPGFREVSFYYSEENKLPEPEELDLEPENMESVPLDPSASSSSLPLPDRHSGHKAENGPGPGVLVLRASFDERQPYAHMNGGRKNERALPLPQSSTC
T11 sequence (P04626 23-1255, species assumed): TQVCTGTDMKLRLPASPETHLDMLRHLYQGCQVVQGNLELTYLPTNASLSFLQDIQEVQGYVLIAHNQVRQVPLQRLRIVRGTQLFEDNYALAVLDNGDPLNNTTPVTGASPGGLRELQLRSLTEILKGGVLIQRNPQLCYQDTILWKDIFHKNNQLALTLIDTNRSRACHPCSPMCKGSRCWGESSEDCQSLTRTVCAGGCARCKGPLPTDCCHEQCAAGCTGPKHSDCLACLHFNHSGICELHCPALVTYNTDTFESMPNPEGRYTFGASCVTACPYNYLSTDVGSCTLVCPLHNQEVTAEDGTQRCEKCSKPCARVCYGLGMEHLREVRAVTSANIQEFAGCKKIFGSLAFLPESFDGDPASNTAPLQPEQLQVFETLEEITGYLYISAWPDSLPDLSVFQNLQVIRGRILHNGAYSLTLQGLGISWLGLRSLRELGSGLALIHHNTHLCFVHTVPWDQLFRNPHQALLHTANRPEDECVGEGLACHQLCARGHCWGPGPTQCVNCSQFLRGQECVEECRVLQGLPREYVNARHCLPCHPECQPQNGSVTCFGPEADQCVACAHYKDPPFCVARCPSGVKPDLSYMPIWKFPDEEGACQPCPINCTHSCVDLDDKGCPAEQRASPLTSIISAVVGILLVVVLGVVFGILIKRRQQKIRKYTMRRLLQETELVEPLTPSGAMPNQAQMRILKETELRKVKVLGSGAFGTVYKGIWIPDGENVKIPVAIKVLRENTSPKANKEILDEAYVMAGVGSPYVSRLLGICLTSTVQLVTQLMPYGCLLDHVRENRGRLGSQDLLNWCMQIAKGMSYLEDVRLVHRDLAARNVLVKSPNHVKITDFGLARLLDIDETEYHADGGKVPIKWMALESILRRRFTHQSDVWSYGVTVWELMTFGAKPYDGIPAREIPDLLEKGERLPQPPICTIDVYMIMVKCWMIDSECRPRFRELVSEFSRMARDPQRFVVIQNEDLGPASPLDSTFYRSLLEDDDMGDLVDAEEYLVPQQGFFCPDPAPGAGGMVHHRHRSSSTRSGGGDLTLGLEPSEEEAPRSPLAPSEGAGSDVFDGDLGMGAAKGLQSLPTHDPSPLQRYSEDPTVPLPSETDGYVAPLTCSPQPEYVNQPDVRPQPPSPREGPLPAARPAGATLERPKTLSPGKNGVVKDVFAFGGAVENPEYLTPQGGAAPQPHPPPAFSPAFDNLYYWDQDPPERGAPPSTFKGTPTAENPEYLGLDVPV
T2 sequence (P08631 whole entry, the tested form may be a part): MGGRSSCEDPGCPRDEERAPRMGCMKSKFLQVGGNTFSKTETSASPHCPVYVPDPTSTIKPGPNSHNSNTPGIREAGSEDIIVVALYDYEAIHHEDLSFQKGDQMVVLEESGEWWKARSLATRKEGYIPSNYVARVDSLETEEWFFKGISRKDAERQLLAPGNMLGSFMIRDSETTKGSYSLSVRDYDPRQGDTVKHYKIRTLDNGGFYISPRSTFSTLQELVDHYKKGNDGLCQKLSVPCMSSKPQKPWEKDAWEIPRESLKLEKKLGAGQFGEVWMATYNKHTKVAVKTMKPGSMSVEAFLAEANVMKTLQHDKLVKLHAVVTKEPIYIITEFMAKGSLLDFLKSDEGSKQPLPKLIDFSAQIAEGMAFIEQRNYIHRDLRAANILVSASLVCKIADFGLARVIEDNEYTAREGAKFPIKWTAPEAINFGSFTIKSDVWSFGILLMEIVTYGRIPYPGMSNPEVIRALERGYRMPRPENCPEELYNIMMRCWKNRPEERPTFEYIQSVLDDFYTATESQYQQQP
T12 sequence (Q9Y243 whole entry, the tested form may be a part): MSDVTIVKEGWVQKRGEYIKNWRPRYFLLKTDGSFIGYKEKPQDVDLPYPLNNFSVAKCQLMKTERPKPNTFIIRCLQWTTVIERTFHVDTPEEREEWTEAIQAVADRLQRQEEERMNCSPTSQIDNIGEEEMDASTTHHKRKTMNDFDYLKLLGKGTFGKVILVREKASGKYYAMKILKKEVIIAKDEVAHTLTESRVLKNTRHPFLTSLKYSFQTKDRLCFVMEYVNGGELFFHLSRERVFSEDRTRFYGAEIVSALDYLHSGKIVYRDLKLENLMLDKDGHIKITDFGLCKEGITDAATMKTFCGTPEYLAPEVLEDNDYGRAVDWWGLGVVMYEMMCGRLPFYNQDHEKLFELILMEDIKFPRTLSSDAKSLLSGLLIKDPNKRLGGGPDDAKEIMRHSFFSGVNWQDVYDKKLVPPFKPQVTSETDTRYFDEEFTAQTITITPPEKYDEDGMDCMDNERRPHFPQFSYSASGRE
T16 sequence (Q15303 26-1308, species assumed): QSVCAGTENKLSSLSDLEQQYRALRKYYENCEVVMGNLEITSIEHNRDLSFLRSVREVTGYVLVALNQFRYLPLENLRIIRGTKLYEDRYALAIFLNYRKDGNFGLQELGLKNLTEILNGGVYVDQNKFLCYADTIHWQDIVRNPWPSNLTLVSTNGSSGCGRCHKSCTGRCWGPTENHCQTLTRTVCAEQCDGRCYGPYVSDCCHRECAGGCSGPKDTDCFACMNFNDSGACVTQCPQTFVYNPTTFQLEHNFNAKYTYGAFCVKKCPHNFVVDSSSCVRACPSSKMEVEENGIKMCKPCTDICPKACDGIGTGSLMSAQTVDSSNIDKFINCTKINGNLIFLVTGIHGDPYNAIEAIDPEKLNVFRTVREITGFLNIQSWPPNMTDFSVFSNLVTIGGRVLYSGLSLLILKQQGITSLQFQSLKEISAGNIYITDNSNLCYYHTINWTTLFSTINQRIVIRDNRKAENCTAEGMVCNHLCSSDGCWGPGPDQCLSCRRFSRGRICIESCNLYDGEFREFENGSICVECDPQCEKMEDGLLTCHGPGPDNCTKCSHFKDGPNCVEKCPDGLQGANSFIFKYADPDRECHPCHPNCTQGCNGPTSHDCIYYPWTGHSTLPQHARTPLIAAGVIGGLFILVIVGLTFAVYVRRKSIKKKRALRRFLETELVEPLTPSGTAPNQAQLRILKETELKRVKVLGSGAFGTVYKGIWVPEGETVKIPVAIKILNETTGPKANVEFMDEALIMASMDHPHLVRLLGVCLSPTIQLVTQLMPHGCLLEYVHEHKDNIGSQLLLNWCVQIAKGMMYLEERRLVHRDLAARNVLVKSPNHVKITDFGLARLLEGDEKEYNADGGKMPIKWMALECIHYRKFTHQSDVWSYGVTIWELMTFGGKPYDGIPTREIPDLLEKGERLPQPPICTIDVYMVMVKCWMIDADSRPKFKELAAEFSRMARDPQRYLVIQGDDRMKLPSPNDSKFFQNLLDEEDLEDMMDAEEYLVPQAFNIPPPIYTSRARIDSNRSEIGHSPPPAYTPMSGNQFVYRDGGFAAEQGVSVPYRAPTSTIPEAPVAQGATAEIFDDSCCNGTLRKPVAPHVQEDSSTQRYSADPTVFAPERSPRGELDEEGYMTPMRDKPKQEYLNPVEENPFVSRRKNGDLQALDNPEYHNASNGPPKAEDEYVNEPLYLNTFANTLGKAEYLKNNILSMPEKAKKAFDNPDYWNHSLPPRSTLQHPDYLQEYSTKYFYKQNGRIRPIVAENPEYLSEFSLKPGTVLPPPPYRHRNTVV

With `CCc1cccc(Nc2ncnc(-n3c(N)nc4ccccc43)n2)c1` [Compound 655], the pIC50 at Fyn was < 4.87; against Hck-1 it was < 4.87; at Lck, 5.14 to 5.92; at Zap-70, < 4.87; on Kdr, > 5.92; against Flt-1, > 5.92. For the same molecule, the pIC50 against Src is 4.98 to 5.14; at PDGFRB, 5.14 to 5.92; at EGFR it was 5.14 to 5.92; on Tek, 4.98 to 5.14; on ErbB2, 5.14 to 5.92; at AKT it was < 4.87. The pIC50 at Lyn was 4.98 to 5.14; on Itk it was 5.14 to 5.92; against IGFR-1, > 5.92; on ErbB4, 4.98 to 5.14; at FGFR1, 5.14 to 5.92; against Ret-1, > 5.92. Further, the pIC50 on c-Met is 5.14 to 5.92.
For `COc1ccc(Nc2ncnc(-n3c(N)nc4ccccc43)n2)cc1` [Compound 656], the pIC50 on Fyn was 4.87 to 4.98; against Hck-1, 4.98 to 5.14; on Lck, 5.14 to 5.92; at Zap-70, < 4.87; on Kdr, > 5.92; against Flt-1, 5.14 to 5.92. Further, the pIC50 against Src was 4.98 to 5.14; at PDGFRB it was 5.14 to 5.92; at EGFR, 4.98 to 5.14; on Tek it was 5.14 to 5.92; at ErbB2, 4.98 to 5.14; on AKT it was < 4.87. Moreover, the pIC50 against Lyn was 4.98 to 5.14; at Itk, 4.98 to 5.14; against IGFR-1 it was > 5.92; on ErbB4, 4.98 to 5.14; at FGFR1 it was 5.14 to 5.92; against Ret-1 it was 5.14 to 5.92. The pIC50 at c-Met is 5.14 to 5.92.
For `COc1cc(Nc2ncnc(-n3c(NCc4ccccn4)nc4ccccc43)n2)cc(OC)c1OCCn1ccnn1` [Compound 942], the pIC50 at Fyn was < 5.10; against Hck-1 it was < 5.10; on Lck, 5.21 to 5.37; at Zap-70, < 5.10; on Kdr, > 6.15; against Flt-1, > 6.15. Also, the pIC50 was < 5.10 against Src; > 6.15 on PDGFRB; < 5.10 at EGFR; < 5.10 at Tek; < 5.10 at ErbB2; < 5.10 at AKT. Besides, the pIC50 on Lyn is > 6.15; on Itk, < 5.10; against IGFR-1 it was 5.21 to 5.37; at ErbB4, < 5.10; on FGFR1, > 6.15; at Ret-1 it was > 6.15. Besides, the pIC50 on c-Met is < 5.10.
Turning to `COc1cc(Nc2ncnc(-n3c(NCc4ccccc4Cl)nc4ccccc43)n2)cc(OC)c1OC` [Compound 943], the pIC50 on Fyn was < 5.06; against Hck-1 it was < 5.06; on Lck, 5.33 to 6.11; at Zap-70 it was 5.17 to 5.33; on Kdr, > 6.11; at Flt-1 it was 5.33 to 6.11. Further, the pIC50 against Src was < 5.06; on PDGFRB, > 6.11; at EGFR, < 5.06; on Tek, 5.06 to 5.17; on ErbB2 it was < 5.06; on AKT it was < 5.06. For the same molecule, the pIC50 on Lyn was 5.33 to 6.11; on Itk, < 5.06; on IGFR-1, < 5.06; at ErbB4 it was 5.06 to 5.17; on FGFR1, 5.33 to 6.11; against Ret-1, > 6.11. The pIC50 at c-Met is < 5.06.
